Laboratory results: patent publication US4740498A, “Fibronectin preparations” (Green Cross Corporation, priority 1984, dated 1988)

System: corneal epithelium of rabbits
Assay: Therapeutic effect in model of corneal disturbance (refrigeration trauma on the corneal epithelium)
Format: in vivo
Details: 400 μg/ml into the eyes, FN = eye drops of Example 2, albumin = control
Procedure: The therapeutic effect of the FN preparations of the present invention was examined using a model of corneal disturbance in rabbits. The model was prepared by applying liquid nitrogen to the eyes of rabbits to cause refrigeration trauma on the corneal epithelium. The FN eye drops prepared in Example 2 were administered into the eyes thus suffering from corneal disturbance at a dose of 400 μg-FN/ml, and the wound surface area was measured with the passage of time. As a control, 400 μg/ml of albumin was used.

In the case of Albumin, the “Wound Surface Area, 0 Day” value (0 Day) is reported as 45 mm^2, the “Wound Surface Area, 1 Day” value (1 Day) is reported as 31 mm^2 and the “Wound Surface Area, 2 Days” value (2 Days) is reported as 33 mm^2. The “Wound Surface Area, 3 Days” value (3 Days) was 25 mm^2 and the “Wound Surface Area, 4 Days” value (4 Days) was 14 mm^2.
